Results from US9783539B2, “Indoloquinolone compounds as anaplastic lymphoma kinase (ALK) inhibitors” (Jiangsu Ascentage Biomed Development Inc., priority 2014, dated 2017).
Several values for one entry are separate records, joined by “and”; a condition that tells them apart may be missing. Equal entries are not always repeated. Where two headings read alike, the source gives them in different places. Values belong to the compound of their own block, whether it stands above or below them.

Columns and labels:
[1] = test system: Kappas-299 cells containing NPM-ALK fusion protein; assay: 4-day cell viability assay (CellTiter-Glo), Kappas-299; type: cell-based; settings: inhibition of cell growth, 4 days, multiple values from independent experiments
Experimental: (§1) The effect of compounds on cell viability was determined in a 4-day proliferation assay. Cells were maintained in RPMI1640 culture medium with 10% FBS at 37° C. and an atmosphere of 5% CO2. […] Cells were seeded in 96-well plates at a density of 3,000-10,000 cells/well in 75 μl of culture medium. Compounds were serially diluted in the appropriate medium, and 75 μl of the diluted compounds were added to the appropriate wells of the cell plate. After the addition of compounds, the cells were incubated at 37° C. in an atmosphere of 5% CO2 for 4 days. Cell viability was determined using the CellTiter-Glo® Luminescent Cell Viability Assay Kit (Promega, Madison, Wis.) (for KARPAS-299 cells) or WST (2-(2-methoxy-4-nitrophenyl)-3-(4-nitrophenyl)-5-(2,4-disulfophenyl)-2H-tetrazolium, monosodium salt) Cell Counting-8 Kit (Dojindo Molecular Technologies, Inc., Rockville, Md.) (for H3122 cells) according to the manufacturers' instructions.
For CellTiter-Glo assay, 100 μl of CellTiter-Glo® Reagent was added to each well, and then the plates were incubated at room temperature for 10-20 minutes. The luminescent signal was measured using a Tecan Infinite M1000 multimode microplate reader (Tecan, Morrisville, N.C.). The readings were normalized to the DMSO-treated cells and the IC50 was calculated by nonlinear regression analysis using the GraphPad Prism 5 software.
Cells were treated for four days and cell growth was determined using a CellTiter-Glo assay.

[2] = test system: H3122 non-small cell lung cancer cell line harboring the EML4-ALK fusion gene; assay: 4-day cell viability assay (WST), H3122; type: cell-based; settings: Homo sapiens, NCI-H3122, 96 h, 4 days, read-out: IC50 (nM) in Inhibition of Tumor Cell Growth H3122 Cell line
Experimental: as §1
For WST assay, WST-8 reagent was added to each well at a final concentration of 10% (v/v), and then the plates were incubated at 37° C. for 1-2 hours for color development. The absorbance was measured at 450 nm using a SPECTRAmax PLUS plate reader (Molecular Devices, Sunnyvale, Calif.). The readings were normalized to the DMSO-treated cells and the half maximal inhibitory concentration (IC50) was calculated by nonlinear regression analysis using the GraphPad Prism 5 software (GraphPad Software, La Jolla, Calif.).
Cells were treated for four days and cell growth was determined using a WST assay.

[3] = biological target: wild-type human ALK protein (cytoplasmic domain, amino acid 1058-1620, GST-fusion) (Homo sapiens, UniProt Q9UM73); assay: biochemical; settings: ALK IC50, wild-type ALK; 100 μM ATP
Sequence of wild-type human ALK protein (cytoplasmic domain, amino acid 1058-1620, GST-fusion) (Q9UM73 1058-1620): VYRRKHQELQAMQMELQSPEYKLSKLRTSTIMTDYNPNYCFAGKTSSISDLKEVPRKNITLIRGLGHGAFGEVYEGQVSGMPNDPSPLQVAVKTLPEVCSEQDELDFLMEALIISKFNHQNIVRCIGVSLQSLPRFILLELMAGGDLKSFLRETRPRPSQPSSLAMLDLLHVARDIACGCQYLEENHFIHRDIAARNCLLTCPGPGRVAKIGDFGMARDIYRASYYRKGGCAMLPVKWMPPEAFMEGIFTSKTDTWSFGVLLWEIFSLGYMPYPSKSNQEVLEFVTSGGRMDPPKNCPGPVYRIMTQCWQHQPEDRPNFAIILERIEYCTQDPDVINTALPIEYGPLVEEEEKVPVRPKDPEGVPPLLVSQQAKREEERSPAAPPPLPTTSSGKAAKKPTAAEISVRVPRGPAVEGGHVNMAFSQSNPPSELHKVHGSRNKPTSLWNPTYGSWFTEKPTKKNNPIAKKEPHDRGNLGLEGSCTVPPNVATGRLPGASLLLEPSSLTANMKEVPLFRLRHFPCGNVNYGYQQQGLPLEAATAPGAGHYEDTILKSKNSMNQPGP
Experimental: Kinase activities of all enzymes were assessed using a Lance TR-FRET assay kit from Perkin Elmer Life Sciences (Waltham, Mass.). 2.5 μL of compound solution and 5 μL of protein solution were added into a black low volume 384 well microtiter plate which was incubated for 15 minutes with gentle shaking at room temperature, followed by adding 2.5 μL of fluorescently labeled peptide substrate (Ulight-[sequence]) and ATP mixture solution. The kinase reaction was performed in 50 mM HEPES (pH 7.5) with 1 mM EGTA, 1 mM MgCl2, and 2 mM DTT, 0.01% Tween-20 added right before the assay. […] The reaction was allowed to perform for 90 minutes in dark with gentle shaking at room temperature after which 10 μL of 20 mM EDTA and 2 nM Eu-W1024 anti-phosphotyrosine antibody (PT66) mixture solution in the detection buffer from the manufacturer was added to terminate the reaction and detect the phosphorylation of the peptide substrate. Final mixture was incubated in the dark for 1 hour before the plate was read on a Tecan Infinite M-1000 multi-mode plate reader (Tecan, Durham N.C.) with an excitation wavelength of 320 nm.

[4] = Pharmacokinetic parameters in SD rats, IV and PO; design: AUC(0-t): concentration or dose not given beside the values; settings: Sprague-Dawley (SD), rat, in vivo; for bioavailability: po, read-out: Oral Bioavailability (F)
From the text: The pharmacokinetic (PK) parameters in SD rats for selected compounds with intravenous (IV) and oral (PO) administrations are provided in the following table (Table 5).

[5] = intravenous, read-out: AUC0-t IV
[6] = intravenous, read-out: t1/2 IV (converted)
[7] = oral, read-out: t1/2 PO (converted)

IC50 [2]: 17 ± 8 nM
IC50 [3]: 0.52 nM
SMILES: CCc1cc2c(=O)c3c4ccc(C#N)cc4[nH]c3n(C(C)C)c2cc1C1CCN(C)CC1 [CJ-2217, 2-Ethyl-5-isopropyl-3-(1-methylpiperidin-4-yl)-11-oxo-6,11-dihydro-5H-indolo[2,3-b]quinoline-8-carbonitrile]
IC50 ([1]; NPM-ALK, 96 h): 14 nM

IC50 [2]: 3 ± 1 nM
IC50 [3]: 0.22 nM
SMILES: CCc1cc2c(=O)c3c4ccc(C#N)cc4[nH]c3n(C(C)C)c2cc1N1CCN(C(C)C)CC1 [ALK-80, 2-Ethyl-5-isopropyl-3-(4-isopropylpiperazin-1-yl)-11-oxo-6,11-dihydro-5H-indolo[2,3-b]quinoline-8-carbonitrile]
IC50 ([1]; NPM-ALK, 96 h): 7.6 nM

IC50 [3]: 0.1 nM
SMILES: CCc1cc2c(=O)c3c4ccc(C#N)cc4[nH]c3n(C(C)C)c2cc1N1CCNCC1 [ALK-81, 2-Ethyl-5-isopropyl-11-oxo-3-(piperazin-1-yl)-6,11-dihydro-5H-indolo[2,3-b]quinoline-8-carbonitrile]
IC50 ([1]; NPM-ALK, 96 h): 440 nM

AUC(0-t) [4, 5]: 1000 ng·h/mL
Cmax ([4]; intravenous, read-out: Cmax IV): 296 ng/mL
Tmax ([4]; intravenous, read-out: Tmax IV): 0.083 h
half-life [4, 6]: 4.37 h
AUC(0-t) ([4]; oral, read-out: AUC0-t PO): 2370 ng·h/mL
Cmax ([4]; oral, read-out: Cmax PO): 230 ng/mL
Tmax ([4]; oral, read-out: Tmax PO): 4.67 h
half-life [4, 7]: 4.99 h
bioavailability [4]: 47.3%
SMILES: COc1cc2c(=O)c3c4ccc(C#N)cc4[nH]c3n(C(C)C)c2c(F)c1C1CCN(C2CCOCC2)CC1 [CJ-2226, 4-Fluoro-5-isopropyl-2-methoxy-11-oxo-3-(1-(tetrahydro-2H-pyran-4-yl)piperidin-4-yl)-6,11-dihydro-5H-indolo[2,3-b]quinoline-8-carbonitrile]

IC50 [3]: 1.6 nM
SMILES: CC(C)n1c2cc(N3CCN(C)CC3)c(OC(F)F)cc2c(=O)c2c3ccc(C#N)cc3[nH]c21 [ALK-59, 2-(Difluoromethoxy)-5-isopropyl-3-(4-methylpiperazin-1-yl)-11-oxo-6,11-dihydro-5H-indolo[2,3-b]quinoline-8-carbonitrile]
IC50 ([1]; NPM-ALK, 96 h): 447 nM

IC50 [3]: 0.26 nM
SMILES: CCc1cc2c(=O)c3c4ccc(C#N)cc4[nH]c3n(C(C)C)c2cc1C1CCNCC1 [CJ-2204, 2-Ethyl-5-isopropyl-11-oxo-3-(piperidin-4-yl)-6,11-dihydro-5H-indolo[2,3-b]quinoline-8-carbonitrile]
IC50 ([1]; NPM-ALK, 96 h): 768 nM

AUC(0-t) [4, 5]: 1110 ng·h/mL
Cmax ([4]; intravenous, read-out: Cmax IV): 212 ng/mL
Tmax ([4]; intravenous, read-out: Tmax IV): 0.222 h
half-life [4, 6]: 4.54 h
AUC(0-t) ([4]; oral, read-out: AUC0-t PO): 2340 ng·h/mL
Cmax ([4]; oral, read-out: Cmax PO): 225 ng/mL
Tmax ([4]; oral, read-out: Tmax PO): 5.33 h
half-life [4, 7]: 4.31 h
bioavailability [4]: 41.7%
SMILES: COc1cc2c(=O)c3c4ccc(C#N)cc4[nH]c3n(C(C)C)c2c(F)c1C1CCN(C(C)C)CC1 [CJ-2225, 4-Fluoro-5-isopropyl-3-(1-isopropylpiperidin-4-yl)-2-methoxy-11-oxo-6,11-dihydro-5H-indolo[2,3-b]quinoline-8-carbonitrile]

AUC(0-t) [4, 5]: 574 ng·h/mL
Cmax ([4]; intravenous, read-out: Cmax IV): 169 ng/mL
Tmax ([4]; intravenous, read-out: Tmax IV): 0.083 h
half-life [4, 6]: 4.78 h
AUC(0-t) ([4]; oral, read-out: AUC0-t PO): 2060 ng·h/mL
Cmax ([4]; oral, read-out: Cmax PO): 208 ng/mL
Tmax ([4]; oral, read-out: Tmax PO): 5.33 h
half-life [4, 7]: 4.08 h
bioavailability [4]: 70.6%
SMILES: COc1cc2c(=O)c3c4ccc(C#N)cc4[nH]c3n(C(C)C)c2c(F)c1C1CCN(C)CC1 [CJ-2212, 4-Fluoro-5-isopropyl-2-methoxy-3-(1-methylpiperidin-4-yl)-11-oxo-6,11-dihydro-5H-indolo[2,3-b]quinoline-8-carbonitrile]

IC50 [3]: 2.3 nM
SMILES: CCc1cc2c(=O)c3c4ccc(C#N)cc4[nH]c3n(C(C)C)c2cc1N1CCOCC1 [ALK-82, 2-Ethyl-5-isopropyl-3-morpholino-11-oxo-6,11-dihydro-5H-indolo[2,3-b]quinoline-8-carbonitrile]
IC50 ([1]; NPM-ALK, 96 h): 46 nM

IC50 [3]: 24.7 nM
SMILES: CCOc1cc2c(=O)c3c4ccc(C#N)cc4[nH]c3n(C3CCCC3)c2cc1N1CCN(C)CC1 [ALK-54, 5-Cyclopentyl-2-ethoxy-3-(4-methylpiperazin-1-yl)-11-oxo-6,11-dihydro-5H-indolo[2,3-b]quinoline-8-carbonitrile]
IC50 ([1]; NPM-ALK, 96 h): 63 nM

AUC(0-t) [4, 5]: 2340 ng·h/mL
Cmax ([4]; intravenous, read-out: Cmax IV): 959 ng/mL
Tmax ([4]; intravenous, read-out: Tmax IV): 0.083 h
half-life [4, 6]: 4.71 h
AUC(0-t) ([4]; oral, read-out: AUC0-t PO): 9640 ng·h/mL
Cmax ([4]; oral, read-out: Cmax PO): 1170 ng/mL
Tmax ([4]; oral, read-out: Tmax PO): 0.67 h
half-life [4, 7]: 3.86 h
bioavailability [4]: 81.5%
SMILES: COc1cc2c(=O)c3c4ccc(C#N)cc4[nH]c3n(C(C)C)c2c(F)c1C1CCN(C2COC2)CC1 [CJ-2224, 4-Fluoro-5-isopropyl-2-methoxy-3-(1-(oxetan-3-yl)piperidin-4-yl)-11-oxo-6,11-dihydro-5H-indolo[2,3-b]quinoline-8-carbonitrile]

Continued, compound first:

SMILES: CCc1cc2c(=O)c3c4ccc(C#N)cc4[nH]c3n(CC)c2cc1N1CCN(C)CC1 [ALK-49, 2,5-Diethyl-3-(4-methylpiperazin-1-yl)-11-oxo-6,11-dihydro-5H-indolo[2,3-b]quinoline-8-carbonitrile]
IC50 ([1]; NPM-ALK, 96 h): 317 nM
IC50 [1]: 546 nM
IC50 [3]: 1.9 nM and 2.8 nM

SMILES: COc1cc2c(=O)c3c4ccc(C#N)cc4[nH]c3n(C(C)C)c2cc1N1CCC(N2CCOCC2)CC1 [ALK-25, 5-isoPropyl-2-methoxy-3-(4-morpholinopiperidin-1-yl)-11-oxo-6,11-dihydro-5H-indolo[2,3-b]quinoline-8-carbonitrile]
IC50 ([1]; NPM-ALK, 96 h): 137 nM
IC50 [3]: 17.8 nM

SMILES: COc1cc2c(=O)c3c4ccc(C#N)cc4[nH]c3n(CC(C)(C)C)c2cc1N1CCN(C)CC1 [ALK-43, 2-Methoxy-3-(4-methylpiperazin-1-yl)-5-neopentyl-11-oxo-6,11-dihydro-5H-indolo[2,3-b]quinoline-8-carbonitrile]
IC50 ([1]; NPM-ALK, 96 h): 266 nM
IC50 [1]: 261 nM
IC50 [3]: 28.5 nM

SMILES: COc1cc2c(=O)c3c4ccc(C#N)cc4[nH]c3n(C)c2cc1N1CCN(C)CC1 [ALK-23, 2-Methoxy-5-methyl-3-(4-methylpiperazin-1-yl)-11-oxo-6,11-dihydro-5H-indolo[2,3-b]quinoline-8-carbonitrile]
IC50 [3]: 309 nM

SMILES: COc1cc2c(=O)c3c4ccc(C#N)cc4[nH]c3n(C)c2cc1N1CCC(N2CCOCC2)CC1 [ALK-22, 2-Methoxy-5-methyl-3-(4-morpholinopiperidin-1-yl)-11-oxo-6,11-dihydro-5H-indolo[2,3-b]quinoline-8-carbonitrile]
IC50 ([1]; NPM-ALK, 96 h): 90.3 nM
IC50 [3]: 661 nM

SMILES: CCc1cc2c(=O)c3c4ccc(C#N)cc4[nH]c3n(C3CCCC3)c2cc1N1CCN(C)CC1 [ALK-48, 5-Cyclopentyl-2-ethyl-3-(4-methylpiperazin-1-yl)-11-oxo-6,11-dihydro-5H-indolo[2,3-b]quinoline-8-carbonitrile]
IC50 ([1]; NPM-ALK, 96 h): 70 nM
IC50 [1]: 84 nM
IC50 [3]: 15.1 nM

SMILES: C=C(C)c1cc2c(=O)c3c4ccc(C#N)cc4[nH]c3n(C(C)C)c2cc1N1CCN(C)CC1 [ALK-51, 5-isoPropyl-3-(4-methylpiperazin-1-yl)-11-oxo-2-(prop-1-en-2-yl)-6,11-dihydro-5H-indolo[2,3-b]quinoline-8-carbonitrile]
IC50 ([1]; NPM-ALK, 96 h): 70 nM
IC50 [1]: 99 nM
IC50 [3]: 20.5 nM

SMILES: C=Cc1cc2c(=O)c3c4ccc(C#N)cc4[nH]c3n(C(C)C)c2cc1N1CCN(C)CC1 [ALK-46, 5-isoPropyl-3-(4-methylpiperazin-1-yl)-11-oxo-2-vinyl-6,11-dihydro-5H-indolo[2,3-b]quinoline-8-carbonitrile]
IC50 ([1]; NPM-ALK, 96 h): 60 nM
IC50 [1]: 102 nM
IC50 [3]: 1.8 nM and 1.5 nM

SMILES: CCC(CC)n1c2cc(N3CCN(C)CC3)c(OC)cc2c(=O)c2c3ccc(C#N)cc3[nH]c21 [ALK-40, 2-Methoxy-3-(4-methylpiperazin-1-yl)-11-oxo-5-(pentan-3-yl)-6,11-dihydro-5H-indolo[2,3-b]quinoline-8-carbonitrile]
IC50 ([1]; NPM-ALK, 96 h): 415 nM
IC50 [3]: 29.7 nM

SMILES: CCc1cc2c(=O)c3c4ccc(C#N)cc4[nH]c3n(C3CCC3)c2cc1N1CCN(C)CC1 [ALK-45, 5-cyclobutyl-2-ethyl-3-(4-methylpiperazin-1-yl)-11-oxo-6,11-dihydro-5H-indolo[2,3-b]quinoline-8-carbonitrile]
IC50 ([1]; NPM-ALK, 96 h): 35 nM
IC50 [1]: 62 nM
IC50 [3]: 1.8 nM and 5.1 nM
